Test results as given in ChEMBL document CHEMBL1909046, “DrugMatrix in vitro pharmacology data”.

Key:
[1] = molecular target: T1, 3-hydroxy-3-methylglutaryl-coenzyme A reductase (Homo sapiens, UniProt P04035); design: species or system Escherichia coli;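 also: enzyme inhibition assay of HMG-CoA reductase using radiolabeled [14C]HMG-CoA as substrate; in other assays of this panel Not Active means under 50% inhibition at 10 µM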
T1 sequence (P04035 whole entry): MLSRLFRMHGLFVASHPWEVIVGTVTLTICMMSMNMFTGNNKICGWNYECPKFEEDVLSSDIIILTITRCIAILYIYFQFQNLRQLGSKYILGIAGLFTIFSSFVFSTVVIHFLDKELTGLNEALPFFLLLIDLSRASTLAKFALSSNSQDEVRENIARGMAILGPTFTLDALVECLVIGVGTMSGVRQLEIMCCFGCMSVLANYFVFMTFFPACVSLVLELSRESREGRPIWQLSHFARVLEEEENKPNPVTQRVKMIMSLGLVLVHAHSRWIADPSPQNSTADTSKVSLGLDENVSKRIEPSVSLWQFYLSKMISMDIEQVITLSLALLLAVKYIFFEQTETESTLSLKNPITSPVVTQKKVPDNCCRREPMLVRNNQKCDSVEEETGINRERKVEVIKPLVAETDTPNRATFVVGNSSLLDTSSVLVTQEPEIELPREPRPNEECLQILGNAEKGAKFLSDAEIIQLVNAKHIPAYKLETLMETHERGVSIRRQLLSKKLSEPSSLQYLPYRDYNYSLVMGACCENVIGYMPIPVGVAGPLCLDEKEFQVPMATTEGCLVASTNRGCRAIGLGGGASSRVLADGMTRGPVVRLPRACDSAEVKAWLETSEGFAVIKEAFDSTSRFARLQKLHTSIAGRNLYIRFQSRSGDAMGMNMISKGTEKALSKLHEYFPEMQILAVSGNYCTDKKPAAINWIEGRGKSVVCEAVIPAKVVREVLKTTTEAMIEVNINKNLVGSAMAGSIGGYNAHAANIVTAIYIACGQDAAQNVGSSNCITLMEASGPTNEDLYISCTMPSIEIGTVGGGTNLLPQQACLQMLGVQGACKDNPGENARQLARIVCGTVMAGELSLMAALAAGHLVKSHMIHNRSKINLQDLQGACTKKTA

Progesterone receptor = molecular target: T2, Progesterone receptor (Bos taurus, UniProt Q690N0); assay: DRUGMATRIX: Progesterone radioligand binding (ligand: [3H] R-5020); type: tissue-based, Uterus; conditions: Not Active = under 50% inhibition at 10 µM
T2 sequence (Q690N0 whole entry): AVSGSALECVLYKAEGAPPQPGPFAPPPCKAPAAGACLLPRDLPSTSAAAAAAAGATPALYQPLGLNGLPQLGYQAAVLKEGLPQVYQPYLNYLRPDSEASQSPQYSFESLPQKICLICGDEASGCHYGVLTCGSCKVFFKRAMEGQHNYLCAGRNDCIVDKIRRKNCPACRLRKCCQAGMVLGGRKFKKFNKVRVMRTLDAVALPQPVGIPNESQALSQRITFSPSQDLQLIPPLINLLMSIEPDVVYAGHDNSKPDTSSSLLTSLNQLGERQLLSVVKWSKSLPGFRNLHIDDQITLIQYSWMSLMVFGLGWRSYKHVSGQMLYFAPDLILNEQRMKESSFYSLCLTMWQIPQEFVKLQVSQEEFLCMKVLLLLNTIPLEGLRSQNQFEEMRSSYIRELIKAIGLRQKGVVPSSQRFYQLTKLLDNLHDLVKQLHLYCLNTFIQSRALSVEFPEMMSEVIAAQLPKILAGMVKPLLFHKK

Cytochrome P450 1A2 = molecular target: T3, Cytochrome P450 1A2 (Homo sapiens, UniProt P05177); conditions: bti-tn-5b1-4; also: in other assays of this panel Not Active means under 50% inhibition at 10 µM
T3 sequence (P05177 whole entry): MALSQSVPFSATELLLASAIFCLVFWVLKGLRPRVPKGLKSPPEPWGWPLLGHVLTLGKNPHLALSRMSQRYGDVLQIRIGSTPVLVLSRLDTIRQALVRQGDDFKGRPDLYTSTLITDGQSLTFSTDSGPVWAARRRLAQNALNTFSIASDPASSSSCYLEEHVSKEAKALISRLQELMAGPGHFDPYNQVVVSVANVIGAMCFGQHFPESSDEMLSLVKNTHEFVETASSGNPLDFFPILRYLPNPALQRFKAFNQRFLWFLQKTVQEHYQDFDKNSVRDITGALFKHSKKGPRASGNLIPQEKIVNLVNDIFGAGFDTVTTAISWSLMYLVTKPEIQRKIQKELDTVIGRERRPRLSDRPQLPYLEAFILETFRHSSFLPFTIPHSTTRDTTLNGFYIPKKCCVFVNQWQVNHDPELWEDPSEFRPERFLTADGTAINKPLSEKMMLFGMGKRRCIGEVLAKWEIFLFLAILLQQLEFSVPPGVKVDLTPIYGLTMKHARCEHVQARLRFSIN

[2] = molecular target: C-C chemokine receptor type 2 (Homo sapiens, UniProt P41597); type: cell membranes, Membrane; conditions: cho-k1; also: in other assays of this panel Not Active means under 50% inhibition at 10 µM
Chain of C-C chemokine receptor type 2 (P41597 whole entry): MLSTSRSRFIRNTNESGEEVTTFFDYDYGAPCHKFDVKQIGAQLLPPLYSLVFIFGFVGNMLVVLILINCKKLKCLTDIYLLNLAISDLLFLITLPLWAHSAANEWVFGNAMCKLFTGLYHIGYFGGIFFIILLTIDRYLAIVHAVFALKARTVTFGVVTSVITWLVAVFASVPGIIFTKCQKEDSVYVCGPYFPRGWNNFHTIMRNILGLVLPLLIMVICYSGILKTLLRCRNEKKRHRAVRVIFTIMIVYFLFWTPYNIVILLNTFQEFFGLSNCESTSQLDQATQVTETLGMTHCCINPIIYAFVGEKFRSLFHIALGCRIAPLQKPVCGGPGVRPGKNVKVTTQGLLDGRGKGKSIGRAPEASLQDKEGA

[3] = molecular target: T4, Muscarinic acetylcholine receptor M2 (Homo sapiens, UniProt P08172); type: cell membranes, CHO-K1, Membrane; conditions: cho-k1; also: in other assays of this panel Not Active means under 50% inhibition at 10 µM
T4 sequence (P08172 whole entry): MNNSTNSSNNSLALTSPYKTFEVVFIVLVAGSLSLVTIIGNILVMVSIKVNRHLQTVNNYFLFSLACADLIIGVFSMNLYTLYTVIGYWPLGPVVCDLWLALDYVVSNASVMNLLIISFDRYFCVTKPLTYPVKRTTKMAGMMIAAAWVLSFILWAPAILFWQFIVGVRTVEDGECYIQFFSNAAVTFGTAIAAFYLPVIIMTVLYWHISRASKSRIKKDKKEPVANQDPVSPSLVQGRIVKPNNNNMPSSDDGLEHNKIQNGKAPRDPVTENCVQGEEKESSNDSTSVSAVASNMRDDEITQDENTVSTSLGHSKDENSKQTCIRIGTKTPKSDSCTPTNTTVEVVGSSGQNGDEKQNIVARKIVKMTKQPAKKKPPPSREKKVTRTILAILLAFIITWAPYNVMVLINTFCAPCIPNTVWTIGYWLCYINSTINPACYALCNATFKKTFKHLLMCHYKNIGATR

[4] = molecular target: Platelet-activating factor receptor (Homo sapiens, UniProt P25105); type: tissue-based; also: in other assays of this panel Not Active means under 50% inhibition at 10 µM
Chain of Platelet-activating factor receptor (P25105 whole entry): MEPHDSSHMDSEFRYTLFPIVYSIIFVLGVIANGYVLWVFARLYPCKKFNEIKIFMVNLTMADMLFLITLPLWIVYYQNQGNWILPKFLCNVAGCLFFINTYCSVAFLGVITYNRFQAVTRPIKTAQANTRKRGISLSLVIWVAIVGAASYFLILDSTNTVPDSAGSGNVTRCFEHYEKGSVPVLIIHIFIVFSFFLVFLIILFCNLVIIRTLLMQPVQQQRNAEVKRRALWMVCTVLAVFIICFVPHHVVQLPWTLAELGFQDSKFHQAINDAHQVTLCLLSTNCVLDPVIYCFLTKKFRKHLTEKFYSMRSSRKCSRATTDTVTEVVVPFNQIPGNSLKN

[5] = DRUGMATRIX: GABAA, Muscimol, Central radioligand binding (ligand: [3H] Muscimol); type: cell membranes, Rattus norvegicus, Wistar, Brain, Membrane; conditions: Not Active = under 50% inhibition at 10 µM
Cytochrome P450 2C9 = Cytochrome P450 2C9 (Homo sapiens, UniProt P11712); conditions: bti-tn-5b1-4; also: in other assays of this panel Not Active means under 50% inhibition at 10 µM
Chain of Cytochrome P450 2C9 (P11712 whole entry): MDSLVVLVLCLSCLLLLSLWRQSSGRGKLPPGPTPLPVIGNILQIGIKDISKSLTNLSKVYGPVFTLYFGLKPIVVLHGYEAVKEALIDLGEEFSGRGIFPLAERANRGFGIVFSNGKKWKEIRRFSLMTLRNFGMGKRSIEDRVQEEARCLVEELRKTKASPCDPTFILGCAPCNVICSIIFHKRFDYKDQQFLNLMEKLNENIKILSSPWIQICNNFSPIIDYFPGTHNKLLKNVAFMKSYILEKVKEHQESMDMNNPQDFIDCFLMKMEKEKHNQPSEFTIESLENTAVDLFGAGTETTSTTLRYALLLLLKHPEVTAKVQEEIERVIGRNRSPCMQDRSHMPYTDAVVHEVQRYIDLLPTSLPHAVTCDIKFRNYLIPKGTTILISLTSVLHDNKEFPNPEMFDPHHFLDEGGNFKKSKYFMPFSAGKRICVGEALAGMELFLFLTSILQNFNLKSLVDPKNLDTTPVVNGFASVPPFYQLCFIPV

CS(=O)(=O)c1ccc([C@@H](O)[C@@H](CO)NC(=O)C(Cl)Cl)cc1 [THIAMPHENICOL]
Not Active: IC50 [1] | IC50 (Progesterone receptor) | IC50 (Cytochrome P450 1A2) | Ki (Cytochrome P450 1A2) | IC50 [2] | IC50 [3] | IC50 [4] | IC50 [5] | Ki [5] | IC50 (Cytochrome P450 2C9) | Ki (Cytochrome P450 2C9)

CCN(CC)CCNC(=O)c1cc(S(C)(=O)=O)ccc1OC [TIAPRIDE]
Not Active: IC50 [1] | IC50 (Progesterone receptor) | IC50 (Cytochrome P450 1A2) | Ki (Cytochrome P450 1A2) | IC50 [2] | IC50 [3] | IC50 [4] | IC50 [5] | Ki [5] | IC50 (Cytochrome P450 2C9) | Ki (Cytochrome P450 2C9)

Clc1ccccc1CN1CCc2sccc2C1 [TICLOPIDINE]
Not Active: IC50 [1] | IC50 (Progesterone receptor) | IC50 (Cytochrome P450 1A2) | Ki (Cytochrome P450 1A2) | IC50 [2] | IC50 [3] | IC50 [4] | IC50 [5] | Ki [5] | IC50 (Cytochrome P450 2C9) | Ki (Cytochrome P450 2C9)

NC1CCN(c2nc3c(cc2F)c(=O)c(C(=O)O)cn3-c2ccc(F)cc2F)C1 (configuration not stated) [TOSUFLOXACIN]
Not Active: IC50 [1] | IC50 (Progesterone receptor) | IC50 (Cytochrome P450 1A2) | Ki (Cytochrome P450 1A2) | IC50 [2] | IC50 [3] | IC50 [4] | IC50 [5] | Ki [5] | IC50 (Cytochrome P450 2C9) | Ki (Cytochrome P450 2C9)

CC(c1cc2ccccc2s1)N(O)C(N)=O (configuration not stated) [ZILEUTON]
Not Active: IC50 [1] | IC50 (Progesterone receptor) | IC50 (Cytochrome P450 1A2) | Ki (Cytochrome P450 1A2) | IC50 [2] | IC50 [3] | IC50 [4] | IC50 [5] | Ki [5] | IC50 (Cytochrome P450 2C9) | Ki (Cytochrome P450 2C9)

MANGANESE CHLORIDE ANHYDROUS
Not Active: IC50 [1] | Ki [1] | IC50 (Progesterone receptor) | Ki (Progesterone receptor) | IC50 (Cytochrome P450 1A2) | Ki (Cytochrome P450 1A2) | IC50 [2] | Ki [2] | IC50 [3] | Ki [3] | IC50 [4] | Ki [4] | IC50 [5] | Ki [5] | IC50 (Cytochrome P450 2C9) | Ki (Cytochrome P450 2C9)

SODIUM ORTHOVANAD
Not Active: IC50 [1] | Ki [1] | IC50 (Progesterone receptor) | Ki (Progesterone receptor) | IC50 (Cytochrome P450 1A2) | Ki (Cytochrome P450 1A2) | IC50 [2] | Ki [2] | IC50 [3] | Ki [3] | IC50 [4] | Ki [4] | IC50 [5] | Ki [5] | IC50 (Cytochrome P450 2C9) | Ki (Cytochrome P450 2C9)
